Laboratory results reported in US20020082280A1, “Method of inhibiting neoplastic cells with benzimidazole derivatives” (priority 1998, published 2002).

Row | Structure (SMILES) | melting point
1 | Cc1nc2ccc(C(=O)NS(=O)(=O)C(F)(F)F)cc2n1Cc1ccccc1Cl.Cl | 332 to 335 °C (dec.)
2 | O=C(O)c1ccc2nc(C3CC3)n(Cc3ccccc3F)c2c1 [Example 18, 6-Carboxy-2-Cyclopropyl-1-(2-Fluorobenzyl)Benzimidazole] | 224 to 229 °C
3 | O=C(Nc1ccccn1)c1ccc2nc(C3CC3)n(Cc3ccccc3Cl)c2c1 [Example 28, 1-(2-Chlorobenzyl)-2-Cyclopropyl-6-(2-Pyridylcarbamoyl)Benzimidazole] | 206 to 209 °C
4 | CCCc1nc2ccc(C(=O)N(C)c3ccccn3)cc2n1Cc1ccccc1Cl [Example 37, 1-(2-Chlorobenzyl)-6-[N-Methyl-N-(2-Pyridyl)carbamoyl]-2-n-Propylbenzimidazole] | 143 to 146 °C
5 | CCCCc1nc2ccc(C(=O)N(C)Cc3ccccn3)cc2n1Cc1ccccc1F [Example 40, 2-n-Butyl-1-(2-Fluorobenzyl)-6-[N-Methyl-N-(2-Pyridylmethyl)Carbamoyl]Benzimidazole] | 97 to 100 °C
6 | Cc1nc2ccc(C(=O)NS(=O)(=O)c3ccccc3)cc2n1Cc1ccccc1Cl [Example 111, 6-Benzenesulfonylcarbamoyl-1-(2-Chlorobenzyl)-2-Methylbenzimidazole] | 273.5 to 274.3 °C
7 | Cc1nc2ccc(C=CC(=O)NS(=O)(=O)c3ccccc3)cc2n1Cc1ccccc1Cl [Example 126, N-Benzenesulfonyl-3-[1-(2-Chlorobenzyl)-2-Methylbenzimidazole-6-yl]Acrylamide] | 243.1 to 244.3 °C
8 | Cc1nc2ccc(C(=O)NS(=O)(=O)c3cccc(Cl)c3)cc2n1Cc1ccccc1Cl [Example 156, 6-(3-Chlorobenzenesulfonylcarbamoyl)-1-(2-Chlorobenzyl)-2-Methylbenzimidazole] | 254.5 to 257.5 °C (dec.)
9 | COc1ccc(S(=O)(=O)NC(=O)c2ccc3nc(C)n(Cc4ccccc4Cl)c3c2)cc1 [Example 162, 1-(2-Chlorobenzyl)-6-(4-Methoxybenzenesulfonylcarbamoyl)-2-Methylbenzimidazole] | 271 to 274 °C
10 | Cc1nc2ccc(C(=O)NS(=O)(=O)Cc3ccccc3)cc2n1Cc1ccccc1Cl [Example 163, 1-(2-Chlorobenzyl)-2-Methyl-6-(α-Toluenesulfonylcarbamoyl)Benzimidazole] | 193 to 196 °C
11 | Cc1ccc(C)c(S(=O)(=O)NC(=O)c2ccc3nc(C)n(Cc4ccccc4Cl)c3c2)c1 [Example 164, 1-(2-Chlorobenzyl)-6-(2,5-Dimethylbenzenesulfonylcarbamoyl)-2-Methylbenzimidazole] | 266.5 to 267.5 °C
12 | Cc1nc2ccc(C(=O)NS(=O)(=O)c3ccc([N+](=O)[O-])cc3)cc2n1Cc1ccccc1Cl [Example 165, 1-(2-Chlorobenzyl)-2-Methyl-6-(4-Nitrobenzenesulfonylcarbamoyl)Benzimidazole] | 330 to 332 °C
13 | Cc1nc2ccc(C(=O)NS(=O)(=O)c3ccc(C(F)(F)F)cc3)cc2n1Cc1ccccc1Cl [Example 166, 1-(2-Chlorobenzyl)-2-Methyl-6-[4(Trifluoromethyl)Benzenesulfonylcarbamoyl]Benzimidazole] | 288 to 292 °C
14 | Cc1nc2ccc(C(=O)NS(=O)(=O)c3ccccc3Cl)cc2n1Cc1ccccc1Cl.N [Example 167, 6-(2-Chlorobenzenesulfonylcarbamoyl)-1-(2-Chlorobenzyl)-2-Methylbenzimidazole Ammonium Salt] | 264 to 267 °C
15 | Nc1nc2ccc(C(=O)NS(=O)(=O)c3ccccc3)cc2n1Cc1ccc(-c2ccccc2)cc1 [Example 172, 2-Amino-6-Benzenesulfonylcarbamoyl-1-(Biphenyl-4-ylmethyl)Benzimidazole] | 352.5 to 355 °C
16 | Cc1nc2ccc(CCC(=O)NS(=O)(=O)c3ccccc3)cc2n1Cc1ccccc1Cl [Example 200, N-Benzenesulfonyl-3-[1-(2-chlorobenzyl)-2-methylbenzimidazole-6-yl]propionamide] | 229.8 to 233 °C
17 | CCCCS(=O)(=O)NC(=O)c1ccc2nc(C)n(Cc3ccc(C(=O)c4ccccc4)cc3)c2c1 [Example 300, 1-[(4-Benzoyl)benzyl]-6-(1-Butanesulfonylcarbamoyl)-2-Methylbenzimidazole] | 111 to 112.4 °C
